How the values were obtained:
Type in all cases: functional
CCRF-CEM [1] = assay: Growth inhibition of human CCRF-CEM cells assessed as cell growth at 0.01 uM after 48 hrs by SRB assay relative to control; settings: read-out: Activity
SW-620 [2] = assay: Growth inhibition of human SW620 cells assessed as cell growth at 0.01 uM after 48 hrs by SRB assay relative to control; settings: SW-620, 48 h, read-out: Activity
SF-295 = assay: Growth inhibition of human SF295 cells assessed as cell growth at 0.01 uM after 48 hrs by SRB assay relative to control; settings: SF-295, 48 h, read-out: Activity
LOX IMVI [3] = assay: Growth inhibition of human LOXIMVI cells assessed as cell growth at 0.01 uM after 48 hrs by SRB assay relative to control; settings: read-out: Activity
RXF 393 = assay: Growth inhibition of human RXF393 cells assessed as cell growth at 0.01 uM after 48 hrs by SRB assay relative to control; settings: RXF 393, 48 h, read-out: Activity
CCRF-CEM [4] = assay: Growth inhibition of human CCRF-CEM cells assessed as cell growth at 0.1 uM after 48 hrs by SRB assay relative to control; settings: read-out: Activity
NCI-H23 = assay: Growth inhibition of human NCI-H23 cells assessed as cell growth at 0.1 uM after 48 hrs by SRB assay relative to control; settings: NCI-H23, 48 h, read-out: Activity
KM12 = assay: Growth inhibition of human KM12 cells assessed as cell growth at 0.1 uM after 48 hrs by SRB assay relative to control; settings: KM12, 48 h, read-out: Activity
SF-539 [5] = assay: Growth inhibition of human SF539 cells assessed as cell growth at 0.1 uM after 48 hrs by SRB assay relative to control; settings: SF-539, 48 h, read-out: Activity
SNB-19 [6] = assay: Growth inhibition of human SNB19 cells assessed as cell growth at 0.1 uM after 48 hrs by SRB assay relative to control; settings: SNB-19, 48 h, read-out: Activity
OVCAR-5 [7] = assay: Growth inhibition of human OVCAR5 cells assessed as cell growth at 0.1 uM after 48 hrs by SRB assay relative to control; settings: OVCAR-5, 48 h, read-out: Activity
NCI/ADR-RES = assay: Growth inhibition of human NCI-ADR-RES cells assessed as cell growth at 0.1 uM after 48 hrs by SRB assay relative to control; settings: read-out: Activity
HT-29 = assay: Growth inhibition of human HT-29 cells assessed as cell growth at 1 uM after 48 hrs by SRB assay relative to control; settings: HT-29, 48 h, read-out: Activity
SW-620 [8] = assay: Growth inhibition of human SW620 cells assessed as cell growth at 1 uM after 48 hrs by SRB assay relative to control; settings: SW-620, 48 h, read-out: Activity
SF-268 = assay: Growth inhibition of human SF268 cells assessed as cell growth at 1 uM after 48 hrs by SRB assay relative to control; settings: SF-268, 48 h, read-out: Activity
SF-539 [9] = assay: Growth inhibition of human SF539 cells assessed as cell growth at 1 uM after 48 hrs by SRB assay relative to control; settings: SF-539, 48 h, read-out: Activity
SNB-19 [10] = assay: Growth inhibition of human SNB19 cells assessed as cell growth at 1 uM after 48 hrs by SRB assay relative to control; settings: SNB-19, 48 h, read-out: Activity
UACC-62 = assay: Growth inhibition of human UACC62 cells assessed as cell growth at 1 uM after 48 hrs by SRB assay relative to control; settings: UACC-62, 48 h, read-out: Activity
OVCAR-5 [11] = assay: Growth inhibition of human OVCAR5 cells assessed as cell growth at 1 uM after 48 hrs by SRB assay relative to control; settings: OVCAR-5, 48 h, read-out: Activity
HOP-92 = assay: Growth inhibition of human HOP92 cells assessed as cell growth at 10 uM after 48 hrs by SRB assay relative to control; settings: HOP-92, 48 h, read-out: Activity
NCI-H322M = assay: Growth inhibition of human NCI-H322M cells assessed as cell growth at 10 uM after 48 hrs by SRB assay relative to control; settings: read-out: Activity
SNB-19 [12] = assay: Growth inhibition of human SNB19 cells assessed as cell growth at 10 uM after 48 hrs by SRB assay relative to control; settings: SNB-19, 48 h, read-out: Activity
SK-OV-3 = assay: Growth inhibition of human SKOV3 cells assessed as cell growth at 10 uM after 48 hrs by SRB assay relative to control; settings: SK-OV-3, 48 h, read-out: Activity
MDA-MB-231 = assay: Growth inhibition of human MDA-MB-231/ATCC cells assessed as cell growth at 10 uM after 48 hrs by SRB assay relative to control; settings: MDA-MB-231, 48 h, read-out: Activity
SF-539 [13] = assay: Growth inhibition of human SF539 cells assessed as cell growth at 100 uM after 48 hrs by SRB assay relative to control; settings: SF-539, 48 h, read-out: Activity
SNB-75 = assay: Growth inhibition of human SNB75 cells assessed as cell growth at 100 uM after 48 hrs by SRB assay relative to control; settings: SNB-75, 48 h, read-out: Activity
LOX IMVI [14] = assay: Growth inhibition of human LOXIMVI cells assessed as cell growth at 100 uM after 48 hrs by SRB assay relative to control; settings: read-out: Activity
OVCAR-8 = assay: Growth inhibition of human OVCAR8 cells assessed as cell growth at 100 uM after 48 hrs by SRB assay relative to control; settings: OVCAR-8, 48 h, read-out: Activity
786-0 = assay: Growth inhibition of human 786-0 cells assessed as cell growth at 100 uM after 48 hrs by SRB assay relative to control; settings: 786-0, 48 h, read-out: Activity
MCF7 = assay: Growth inhibition of human MCF7 cells assessed as cell growth at 100 uM after 48 hrs by SRB assay relative to control; settings: MCF7, 48 h, read-out: Activity
MDA-MB-468 = assay: Growth inhibition of human MDA-MB-468 cells assessed as cell growth at 100 uM after 48 hrs by SRB assay relative to control; settings: MDA-MB-468, 48 h, read-out: Activity
SR = assay: Cytotoxicity against human SR cells assessed as growth inhibition after 48 hrs by SRB assay
MDA-MB-435 = assay: Cytotoxicity against human MDA-MB-435 cells assessed as growth inhibition after 48 hrs by SRB assay; settings: MDA-MB-435, 48 h
CAKI-1 = assay: Cytotoxicity against human Caki1 cells assessed as growth inhibition after 48 hrs by SRB assay; settings: CAKI-1, 48 h
[15] = read-out: LC50 (the source's name)
[16] = read-out: pLC50 (the source's name) (converted)

COc1ccc2c(c1)CCc1n[nH]c(-c3cc(OC)c(OC)c(OC)c3)c1-2 showed a growth at 0.01 µM (CCRF-CEM [1]) of 38%, a growth at 0.01 µM (SW-620 [2]) of 16% and a growth at 0.01 µM (SF-295) of 3%. For the same compound, the growth at 0.01 µM (LOX IMVI [3]) was 21%, the growth at 0.01 µM (RXF 393) was -8% and the growth at 0.1 µM (CCRF-CEM [4]) was 42%. It also gave a growth at 0.1 µM (NCI-H23) of 5%, a growth at 0.1 µM (KM12) of 10% and a growth at 0.1 µM (SF-539 [5]) of -6%. For the same compound, the growth at 0.1 µM (SNB-19 [6]) was 33%, the growth at 0.1 µM (OVCAR-5 [7]) was 54% and the growth at 0.1 µM (NCI/ADR-RES) was -21%. For the same compound, the growth at 1 µM (HT-29) was 5%, the growth at 1 µM (SW-620 [8]) was 14% and the growth at 1 µM (SF-268) was 29%. For the same compound, the growth at 1 µM (SF-539 [9]) was -12%, the growth at 1 µM (SNB-19 [10]) was 34% and the growth at 1 µM (UACC-62) was 36%. It also gave a growth at 1 µM (OVCAR-5 [11]) of 43%, a growth at 10 µM (HOP-92) of 42% and a growth at 10 µM (NCI-H322M) of 31%. It also gave a growth at 10 µM (SNB-19 [12]) of 24%, a growth at 10 µM (SK-OV-3) of -13% and a growth at 10 µM (MDA-MB-231) of 33%. For the same compound, the growth at 100 µM (SF-539 [13]) was -78%, the growth at 100 µM (SNB-75) was -30% and the growth at 100 µM (LOX IMVI [14]) was -91%. For the same compound, the growth at 100 µM (OVCAR-8) was -38%, the growth at 100 µM (786-0) was -48% and the growth at 100 µM (MCF7) was -38%. The growth at 100 µM (MDA-MB-468) was -39%, the GI50 (SR; read-out: GI50) was less than 0.01 µM and the CC50 (SR; [15]) was greater than 100 µM. The TGI (SR; read-out: TGI) was 22.9 µM, the GI50 (SR; read-out: pGI50 (converted)) was less than 0.01 µM and the CC50 (SR; [16]) was greater than 100 µM. It also gave a TGI (SR; read-out: pTGI (converted)) of 22.9 µM, a GI50 (MDA-MB-435; read-out: GI50) of less than 0.01 µM and a CC50 (MDA-MB-435; [15]) of 29.8 µM. The TGI (MDA-MB-435; read-out: TGI) was less than 0.01 µM, the GI50 (MDA-MB-435; read-out: pGI50 (converted)) was less than 0.01 µM and the CC50 (MDA-MB-435; [16]) was 29.5 µM. The TGI (MDA-MB-435; read-out: pTGI) was less than 0.01 µM, the GI50 (CAKI-1; read-out: GI50) was less than 0.01 µM and the LC50 (concentration killing 50% of cells) (CAKI-1; read-out: LC50) was greater than 100 µM. For the same compound, the TGI (CAKI-1; read-out: TGI) was 24.8 µM, the GI50 (CAKI-1; read-out: pGI50 (converted)) was less than 0.01 µM and the LC50 (concentration killing 50% of cells) (CAKI-1; read-out: pLC50 (converted)) was greater than 100 µM. The TGI (CAKI-1; read-out: pTGI (converted)) was 24.5 µM.
